Results as given in US8946266B2, “Substituted triazole and imidazole derivatives as gamma secretase modulators” (Janssen Pharmaceuticals, Inc., priority 2009, dated 2015).
Like-named read-outs stand apart in the source and are kept apart here.

Experiments:
[1] = test system: Aβtotal; assay: γ-secretase-modulating activity, Method 2: Aβtotal Alphalisa in supernatant of SKNBE2 cells carrying APP 695-wild type (Table 3b); assay type: cell-based; details: overnight, read-out: IC50 Aβtot
In short: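 Secreted Aβtotal was quantified by AlphaLISA pairing an N-terminal antibody (JRF/AβN/25) with biotinylated mid-region 4G8. Wild-type APP 695 SKNBE2 cells received serially varied compound overnight at 37 °C; IC50 came from a 4-parameter nonlinear regression of percent of control against log dose.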

[2] = test system: Aβtotal; assay: In vivo efficacy, Method 1: brain soluble Aβtotal lowering 4 h after a single oral dose, ELISA (Table 4a); parameters: species or system mouse; details: dose 30 mg/kg oral dosing
Text: To determine whether acute administration of an Aβ42 lowering agent would reduce Aβ42 levels in vivo, non-transgenic rodents, e.g. mice or rats were used. Alternatively, two to three month old Tg2576 mice expressing APP695 containing the “Swedish” variant can be used or a transgenic mouse model developed by Dr. Fred Van Leuven (K.U. Leuven, Belgium) and co-workers, with neuron-specific expression of a clinical mutant of the human amyloid precursor protein [V717I] (Moechars et al., 1999 J. Biol. Chem. 274, 6483). Young transgenic mice have high levels of Aβ in the brain but no detectable Aβ deposition. At approximately 6-8 months of age, the transgenic mice start to display spontaneous, progressive accumulation of β-amyloid (Aβ) in the brain, eventually resulting in amyloid plaques within the subiculum, hippocampus and cortex. Animals treated with the Aβ42 lowering agent were examined and compared to those untreated or treated with vehicle and brain levels of soluble Aβ42 and total Aβ would be quantitated by standard techniques, for example, using ELISA. Treatment periods varied from hours (h) to days and were adjusted based on the results of the Aβ42 lowering once a time course of onset of effect could be established.
A typical protocol for measuring Aβ42 lowering in vivo is shown but it is only one of many variations that could be used to optimize the levels of detectable Aβ. For example, Aβ42 lowering compounds were formulated in 20% of Captisol® (a sulfobutyl ether of β-cyclodextrin) in water or 20% hydroxypropyl cyclodextrin. The Aβ42 lowering agents were administered as a single oral dose or by any acceptable route of administration to overnight fasted animals. After 4 h, the animals were sacrificed and Aβ42 levels were analysed.
Blood was collected by decapitation and exsanguinations in EDTA-treated collection tubes. Blood was centrifuged at 1900 g for 10 minutes (min) at 4° C. and the plasma recovered and flash frozen for later analysis. The brain was removed from the cranium and hindbrain. The cerebellum was removed and the left and right hemisphere were separated. The left hemisphere was stored at −18° C. for quantitative analysis of test compound levels. The right hemisphere was rinsed with phosphate-buffered saline (PBS) buffer and immediately frozen on dry ice and stored at −80° C. until homogenization for biochemical assays.
Mouse brains were resuspended in 10 volumes of 0.4% DEA (diethylamine)/50 mM NaCl pH 10 (for non-transgenic animals) or 0.1% 3-[(3-cholamidopropyl)-dimethyl-ammonio]-1-propanesulfonate (CHAPS) in tris buffered saline (TBS) (for transgenic animals) containing protease inhibitors (Roche-11873580001 or 04693159001) per gram of tissue, e.g. for 0.158 g brain, add 1.58 ml of 0.4% DEA. All samples were sonicated for 30 seconds on ice at 20% power output (pulse mode). Homogenates were centrifuged at 221.300×g for 50 min. The resulting high speed supernatants were then transferred to fresh tubes and were optionally further purified before the next step. A portion of the supernatant was neutralized with 10% 0.5 M Tris-HCl and this was used to quantify Aβtotal.
To quantify the amount of Aβ42 in the soluble fraction of the brain homogenates, commercially available Enzyme-Linked-Immunosorbent-Assay (ELISA) kits were used (e.g. Innotest® β-Amyloid(1-42), Innogenetics N.V., Ghent, Belgium). The Aβ42 ELISA was performed using the plate provided with the kit only. Briefly, the standards (a dilution of synthetic Aβ1-42) were prepared in 1.5 ml Eppendorf tube in Ultraculture, with final concentrations ranging from 25000 to 1.5 pg/ml. Samples, standards and blanks (60 μl) were added to the anti-Aβ42-coated plate (the capture antibody selectively recognizes the C-terminal end of the antigen). The plate was allowed to incubate overnight at 4° C. in order to allow formation of the antibody-amyloid complex. […]

IC50 [1] [µM] | IC50 ([1]; Homo sapiens) [µM] | Compound | Aβtotal (% Ctrl) _Mean [2] [% Ctrl]
> 10 | – | COc1cc(-c2nc(Nc3ccc(F)cc3C(F)(F)F)n(C)n2)ccc1-n1cnc(C)c1 [Compound 15] | 3
4.07 | – | COc1cc(-c2nc(Nc3cccc(C(F)(F)F)c3)n(C)n2)ccc1-n1cnc(C)c1 [Compound 146] | 14
– | > 10 | COc1cc(-c2nc(-c3ccccc3)n(C)n2)ccc1-n1cnc(C)c1 [Compound 9] | 0
– | > 10 | COc1cc(-c2nc(C)c(-c3ccccc3)[nH]2)ccc1-n1cnc(C)c1 [Compound 11] | −4
